# Literature values, collected in US9289440B2, “Intravenous formulation with water-soluble cocrystals of acetylsalicylic acid and theanine” (THEAPRIN PHARMACEUTICALS INC., priority 2009, dated 2016).
# Entries after “also recorded” stand apart in the source; their conditions may differ.
# Conditions: FDA Reports 2006-2008, single patient reports
smiles,measurement,value
"CC(=O)Oc1ccccc1C(=O)O [Aspegic, lysine acetylsalicylate]",side effect after drug was administered,cardio-respiratory arrest and ventricular fibrillation and died; also recorded: angina pectoris and recovered
